Here are results for 1 compound from patent US20200054633A1 (priority 2017, published 2020).

Read-outs that look alike come from different tables or passages of the source.

In experiment [1] the test system is acute uncomplicated seasonal influenza A. Description: Clinical study: nasal viral load by qRT-PCR (AUC, LS means, time to viral negativity). Format: in vivo, human. The note with it: for LS Means viral load (qRT-PCR) Day 3 / LS Means viral load (qRT-PCR) Day 4 / LS Means viral load (qRT-PCR) Day 6 / LS Means viral load (qRT-PCR) Day 8: log10 nasal viral load; for LS Means viral load (qRT-PCR) Day 3 / LS Means viral load (qRT-PCR) Day 4 / LS Means viral load (qRT-PCR) Day 6 / LS Means viral load (qRT-PCR) Day 8 / Change in AUC Viral Load (by qRT-PCR) Days 1 to 8 versus placebo / Time to influenza A negativity (qRT-PCR) Acceleration Factor: Full Analysis Set; for Time to influenza A negativity (qRT-PCR) Acceleration Factor: versus placebo, accelerated failure time model. (Quantitative PCR measures a nucleic acid by following its amplification.)

The next experiment concerns Influenza A. Format: in vivo, human. The settings on record: for Acceleration Factor, time to Influenza A negativity (TCID50), treatment versus placebo: accelerated failure time model, Full Analysis Set.
In experiment [2] the test system is acute uncomplicated seasonal influenza A. The experiment in a line: Clinical study: time to resolution of the 7 primary influenza symptoms (Flu-iiQ). The settings on record: for Median (95% CI): untitled table, presumably time to symptom resolution.
From the text: This study followed a randomized, double-blind, placebo-controlled, parallel-group, multicenter design.
Key secondary efficacy variable: Time to resolution of influenza symptoms after initiation of study drug. Resolution of influenza symptoms was defined as the first Flu iiQ™ recording of a successive series of 3 recordings (over 4 scheduled successive analysis time points, 1 missing time point is allowed) in which all symptom scores for each of the 3 assessments were at most mild for all 7 primary influenza symptoms (cough, sore throat, headache, nasal stuffiness, feverishness or chills, muscle or joint pain, and fatigue).

`O=C(O)[C@H]1C2CCC(CC2)[C@@H]1Nc1nc(-c2c[nH]c3ncc(F)cc23)ncc1F` [Compound (1), Pimodivir]: the “LS Means viral load (qRT-PCR) Day 3” value in experiment [1] (Cmpd (1) 300 mg + OST placebo) is reported as 5.2; in experiment [1] (Cmpd (1) 600 mg + OST placebo), 4.9. The results for the “LS Means viral load (qRT-PCR) Day 4” value in experiment [1] (Cmpd (1) 300 mg + OST placebo) and in experiment [1] (Cmpd (1) 600 mg + OST placebo) were 3.9 and 3.8, respectively. The “LS Means viral load (qRT-PCR) Day 6” value in experiment [1] (Cmpd (1) 300 mg + OST placebo) and in experiment [1] (Cmpd (1) 600 mg + OST placebo) was 2.5 each time. Further, the “LS Means viral load (qRT-PCR) Day 8” value in experiment [1] (Cmpd (1) 300 mg + OST placebo) came to 1.4; in experiment [1] (Cmpd (1) 600 mg + OST placebo) it was 1.0. Also, the “reduction of time to viral negativity (qRT-PCR) versus placebo” value in experiment [1] (Compound (1) 300 mg bid) amounted to 13%; in experiment [1] (Compound (1) 600 mg bid), 18%. Besides, the “Change in AUC Viral Load (by qRT-PCR) Days 1 to 8 versus placebo” value is on record as −3.6 day*log10 copies/mL in experiment [1] (Compound (1) 300 mg bid) and −4.5 day*log10 copies/mL in experiment [1] (Compound (1) 600 mg bid). In experiment [1] (Compound (1) treatment versus placebo), the “effect on AUC of viral load (by qRT-PCR) over 7 days from start of dosing” value was “statistically significant and dose-dependent decrease in AUC of viral load”. In addition, the “Time to influenza A negativity (qRT-PCR) Acceleration Factor” value in experiment [1] (Cmpd (1) 300 mg + OST placebo) was found to be 0.87; in experiment [1] (Cmpd (1) 600 mg + OST placebo), 0.82. Besides, the “Acceleration Factor, time to Influenza A negativity (TCID50), treatment versus placebo” value turned out to be 0.71 in the experiment on Influenza A (Cmpd (1) 300 mg + OST placebo) and 0.72 in the experiment on Influenza A (Cmpd (1) 600 mg + OST placebo). Besides, the entries for the “reduction in time to negative viral load (viral culture) versus placebo” value with Influenza A (Compound (1) 300 mg bid) and in the experiment with Influenza A (Compound (1) 600 mg bid) were 29% and 28%, respectively. The “Median (95% CI)” value is 99.0 (71.5; in experiment [2] (Cmpd (1) 300 mg) and 85.7 (55.3; in experiment [2] (Cmpd (1) 600 mg). In addition, the “increase in time to resolution of the 7 primary influenza symptoms versus placebo” value in experiment [2] (Compound (1) 300 mg bid, accelerated failure time model) is reported as 7%.
